According to ChEMBL document CHEMBL4819077, “Design, synthesis, and biological evaluation of diosgenin-indole derivatives as dual-functional agents for the treatment of Alzheimer's disease” (Eur J Med Chem, 2021):
Calls of active or inactive are those of the source. No cut-off for these calls is given here.

Columns and labels:
SH-SY5Y [1] = assay: Neuroprotection against H202-induced oxidative stress in human SH-SY5Y cells assessed as cell protection at 10 uM preincubated for 2 hr before H202 challenge and measured after 24 hrs by MTT assay; type: functional
SH-SY5Y [2] = assay: Cytotoxicity against human SH-SY5Y cells assessed as reduction in cell viability measured after 24 hrs by MTT assay; type: cell-based
SH-SY5Y [3] = assay: Neuroprotection against 6-OHDA-induced oxidative stress in human SH-SY5Y cells assessed as cell protection at 10 uM preincubated for 2 hr before 6-OHDA challenge and measured after 24 hrs by MTT assay; type: functional; conditions: time 26 hrs
SH-SY5Y [4] = assay: Neuroprotection against Abeta-induced oxidative stress in human SH-SY5Y cells assessed as cell protection at 10 uM incubated for 2 hr before Abeta(1-42) challenge and measured after 24 hrs by MTT assay; type: functional; conditions: time 26 hrs
Mus musculus [5] = assay: Neuroprotection against icv infused amyloid beta (1 to 42)-induced ICR mouse model of Alzheimer's disease assessed as rescue of decrease neuronal cells in hippocampal at to 2 mg/kg, po administered daily for 7 days by HE staining; type: functional, organism-based; conditions: time 7.0 day
Mus musculus [6] = assay: Improvement in learning and spatial memory in icv infused amyloid beta (1 to 42)-induced ICR mouse model of Alzheimer's disease assessed as improved target quadrant exploration time at to 2 mg/kg, po administered daily for 7 days starting from 7 days post surgery by Morris water maze test; type: functional, organism-based; conditions: time 7.0 day
Mus musculus [7] = assay: Neuroprotection against icv infused amyloid beta (1 to 42)-induced ICR mouse model of Alzheimer's disease assessed as rescue of pyknotic nucleus in hippocampal at to 2 mg/kg, po administered daily for 7 days by HE staining; type: functional, organism-based; conditions: time 7.0 day

SMILES | Activity (SH-SY5Y [1]) | Activity (SH-SY5Y [2]) | Activity (SH-SY5Y [3]) | Activity (SH-SY5Y [4]) | Activity (Mus musculus [5]) | Activity (Mus musculus [6]) | Activity (Mus musculus [7])
Cc1[nH]c2ccccc2c1CC(=O)Oc1ccc2c(c1)CC[C@@H]1[C@@H]2CC[C@]2(C)[C@@H]3[C@H](C[C@@H]12)O[C@]1(CC[C@@H](C)CO1)[C@H]3C | 22.7% | Non-Toxic | 30.5% |  |  |  | 
C[C@@H]1CC[C@@]2(OC1)O[C@H]1C[C@H]3[C@@H]4CCc5cc(OC(=O)Cc6c[nH]c7ccccc67)ccc5[C@H]4CC[C@]3(C)[C@H]1[C@@H]2C | 18.4% | Non-Toxic | 61.1% | 20.6% |  |  | 
COc1ccc2[nH]cc(CC(C)NC(=O)Oc3ccc4c(c3)CC[C@@H]3[C@@H]4CC[C@]4(C)[C@@H]5[C@H](C[C@@H]34)O[C@]3(CC[C@@H](C)CO3)[C@H]5C)c2c1 (some centres not stated) | 43.6% | Non-Toxic | 25.8% | 37.2% |  |  | 
C[C@@H]1CC[C@@]2(OC1)O[C@H]1C[C@H]3[C@@H]4CCc5cc(OC(=O)Cc6c[nH]c7ccc(F)cc67)ccc5[C@H]4CC[C@]3(C)[C@H]1[C@@H]2C | 13.3% | Non-Toxic | 20.2% |  |  |  | 
COc1ccc2[nH]cc(CC(=O)Oc3ccc4c(c3)CC[C@@H]3[C@@H]4CC[C@]4(C)[C@@H]5[C@H](C[C@@H]34)O[C@]3(CC[C@@H](C)CO3)[C@H]5C)c2c1 | 26.9% | Non-Toxic | 57.4% | 30.4% |  |  | 
Cc1ccc2[nH]cc(CC(=O)Oc3ccc4c(c3)CC[C@@H]3[C@@H]4CC[C@]4(C)[C@@H]5[C@H](C[C@@H]34)O[C@]3(CC[C@@H](C)CO3)[C@H]5C)c2c1 | 14.6% | Non-Toxic | 18.8% |  |  |  | 
COc1cc2c(cc1OC)C(=O)C(CC1CCN(Cc3ccccc3)CC1)C2 (configuration not stated) |  |  |  |  | Active | Active | Active
C[C@@H]1CC[C@@]2(OC1)O[C@H]1C[C@H]3[C@@H]4CCc5cc(OC(=O)NCCc6c[nH]c7ccccc67)ccc5[C@H]4CC[C@]3(C)[C@H]1[C@@H]2C | 21.5% | Non-Toxic | 40.6% | 42.7% |  |  | 
COc1ccc2[nH]c(C)c(CC(=O)Oc3ccc4c(c3)CC[C@@H]3[C@@H]4CC[C@]4(C)[C@@H]5[C@H](C[C@@H]34)O[C@]3(CC[C@@H](C)CO3)[C@H]5C)c2c1 | 37.7% | Non-Toxic | 42.3% | 26.9% |  |  | 
COc1ccc2c(CCNC(=O)Oc3ccc4c(c3)CC[C@@H]3[C@@H]4CC[C@]4(C)[C@@H]5[C@H](C[C@@H]34)O[C@]3(CC[C@@H](C)CO3)[C@H]5C)c[nH]c2c1 | 50% | Non-Toxic | 47.7% | 43.7% |  |  | 
C[C@@H]1CC[C@@]2(OC1)O[C@H]1C[C@H]3[C@@H]4CCc5cc(OC(=O)Cc6c[nH]c7cc(Cl)ccc67)ccc5[C@H]4CC[C@]3(C)[C@H]1[C@@H]2C | 13.4% | Non-Toxic | 10.9% |  |  |  | 
C[C@@H]1CC[C@@]2(OC1)O[C@H]1C[C@H]3[C@@H]4CCc5cc(OC(=O)NCCc6c[nH]c7ccc(Cl)cc67)ccc5[C@H]4CC[C@]3(C)[C@H]1[C@@H]2C | 38.6% | Non-Toxic | 15.8% |  |  |  | 
Cc1[nH]c2ccccc2c1CCNC(=O)Oc1ccc2c(c1)CC[C@@H]1[C@@H]2CC[C@]2(C)[C@@H]3[C@H](C[C@@H]12)O[C@]1(CC[C@@H](C)CO1)[C@H]3C | 31.1% | Non-Toxic | 34.4% |  |  |  | 
C[C@@H]1CC[C@@]2(OC1)O[C@H]1C[C@H]3[C@@H]4CCc5cc(OC(=O)NCCc6c[nH]c7ccc(F)cc67)ccc5[C@H]4CC[C@]3(C)[C@H]1[C@@H]2C | 43.4% | Non-Toxic | 47.7% | 44.8% |  |  | 
C[C@@H]1CC[C@@]2(OC1)O[C@H]1C[C@H]3[C@@H]4CCc5cc(OC(=O)NCCc6c[nH]c7cc(F)ccc67)ccc5[C@H]4CC[C@]3(C)[C@H]1[C@@H]2C | 35.8% | Non-Toxic | 40.2% | 42.5% |  |  | 
C[C@@H]1CC[C@@]2(OC1)O[C@H]1C[C@H]3[C@@H]4CC=C5C[C@@H](O)CC[C@]5(C)[C@H]4CC[C@]3(C)[C@H]1[C@@H]2C [DISOGENIN] | 9.2% |  | 14.2% | 7.4% |  |  | 
COc1ccc2c(CC(=O)Oc3ccc4c(c3)CC[C@@H]3[C@@H]4CC[C@]4(C)[C@@H]5[C@H](C[C@@H]34)O[C@]3(CC[C@@H](C)CO3)[C@H]5C)c[nH]c2c1 |  | Toxic |  |  |  |  | 
Cc1ccc2[nH]cc(CCNC(=O)Oc3ccc4c(c3)CC[C@@H]3[C@@H]4CC[C@]4(C)[C@@H]5[C@H](C[C@@H]34)O[C@]3(CC[C@@H](C)CO3)[C@H]5C)c2c1 | 49.1% | Non-Toxic | 27.7% | 34.2% |  |  | 
C[C@@H]1CC[C@@]2(OC1)O[C@H]1C[C@H]3[C@@H]4CCc5cc(OC(=O)NCCc6c[nH]c7ccc(Br)cc67)ccc5[C@H]4CC[C@]3(C)[C@H]1[C@@H]2C | 29.6% | Non-Toxic | 27.9% |  |  |  | 
C[C@@H]1CC[C@@]2(OC1)O[C@H]1C[C@H]3[C@@H]4CCc5cc(OC(=O)Cc6c[nH]c7ccc(Br)cc67)ccc5[C@H]4CC[C@]3(C)[C@H]1[C@@H]2C | 15.8% | Non-Toxic | 4.2% |  |  |  | 
